Measurements taken from publication PMC10905675, “INX-315, a Selective CDK2 Inhibitor, Induces Cell Cycle Arrest and Senescence in Solid Tumors” (Cancer Discovery, 2023).

Legend:
Experiment in all cases: SelectScreen ZLYTE
Type in all cases: biochemical
Conditions in all cases: INX-0315 at 100nM
[1] = target: T1, AMPK (A1/B2/G2) (Homo sapiens, UniProt Q13131)
T1 construct: purchased Thermo Fisher Scientific SelectScreen (plus Nanosyn / Reaction Biology for CDK/cyclin lines)
Summary of the method: (§1)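 Both platform types ran at predefined settings. Inhibitor was applied first at 100 nmol/L (1% DMSO), later in ten-point titrations spanning 1 µmol/L to 0.0495 nmol/L.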

[2] = target: T2, BLK (Homo sapiens, UniProt P51451)
T2 construct: purchased Thermo Fisher Scientific SelectScreen (plus Nanosyn / Reaction Biology for CDK/cyclin lines)
Summary of the method: as §1

[3] = target: T3, BRSK1 (SAD1) (Homo sapiens, UniProt Q8TDC3)
T3 construct: purchased Thermo Fisher Scientific SelectScreen (plus Nanosyn / Reaction Biology for CDK/cyclin lines)
Summary of the method: as §1

[4] = target: T4, CAMK4 (CaMKIV) (Homo sapiens, UniProt Q16566)
T4 construct: purchased Thermo Fisher Scientific SelectScreen (plus Nanosyn / Reaction Biology for CDK/cyclin lines)
Summary of the method: as §1

[5] = target: T5, CDK2/cyclin A (Homo sapiens, UniProt P24941)
T5 construct: purchased Thermo Fisher Scientific SelectScreen (plus Nanosyn / Reaction Biology for CDK/cyclin lines)
Summary of the method: as §1

[6] = target: T6, CSNK2A1 (CK2 alpha 1) (Homo sapiens, UniProt P68400)
T6 construct: purchased Thermo Fisher Scientific SelectScreen (plus Nanosyn / Reaction Biology for CDK/cyclin lines)
Summary of the method: as §1

[7] = target: T7, DYRK1A (Homo sapiens, UniProt Q13627)
T7 construct: purchased Thermo Fisher Scientific SelectScreen (plus Nanosyn / Reaction Biology for CDK/cyclin lines)
Summary of the method: as §1

[8] = target: T8, DYRK3 (Homo sapiens, UniProt O43781)
T8 construct: purchased Thermo Fisher Scientific SelectScreen (plus Nanosyn / Reaction Biology for CDK/cyclin lines)
Summary of the method: as §1

[9] = target: T9, EGFR (ErbB1) L861Q (Homo sapiens, UniProt P00533, L861Q)
T9 construct: purchased Thermo Fisher Scientific SelectScreen (plus Nanosyn / Reaction Biology for CDK/cyclin lines)
Summary of the method: as §1

[10] = target: T10, EPHB1 (Homo sapiens, UniProt P54762)
T10 construct: purchased Thermo Fisher Scientific SelectScreen (plus Nanosyn / Reaction Biology for CDK/cyclin lines)
Summary of the method: as §1

[11] = target: T11, ERBB2 (HER2) (Homo sapiens, UniProt P04626)
T11 construct: purchased Thermo Fisher Scientific SelectScreen (plus Nanosyn / Reaction Biology for CDK/cyclin lines)
Summary of the method: as §1

[12] = target: T12, FGFR1 (Homo sapiens, UniProt P11362)
T12 construct: purchased Thermo Fisher Scientific SelectScreen (plus Nanosyn / Reaction Biology for CDK/cyclin lines)
Summary of the method: as §1

[13] = target: T13, FGFR3 V555M (Homo sapiens, UniProt P22607, V555M)
T13 construct: purchased Thermo Fisher Scientific SelectScreen (plus Nanosyn / Reaction Biology for CDK/cyclin lines)
Summary of the method: as §1

[14] = target: T14, HIPK2 (Homo sapiens, UniProt Q9H2X6)
T14 construct: purchased Thermo Fisher Scientific SelectScreen (plus Nanosyn / Reaction Biology for CDK/cyclin lines)
Summary of the method: as §1

[15] = target: T15, IKBKB (IKK beta) (Homo sapiens, UniProt O14920)
T15 construct: purchased Thermo Fisher Scientific SelectScreen (plus Nanosyn / Reaction Biology for CDK/cyclin lines)
Summary of the method: as §1

[16] = target: T16, KIT V559D (Homo sapiens, UniProt P10721, V559D)
T16 construct: purchased Thermo Fisher Scientific SelectScreen (plus Nanosyn / Reaction Biology for CDK/cyclin lines)
Summary of the method: as §1

[17] = target: T17, MAPK1 (ERK2) (Homo sapiens, UniProt P28482)
T17 construct: purchased Thermo Fisher Scientific SelectScreen (plus Nanosyn / Reaction Biology for CDK/cyclin lines)
Summary of the method: as §1

[18] = target: T18, MAPK14 (p38 alpha) (Homo sapiens, UniProt Q16539)
T18 construct: purchased Thermo Fisher Scientific SelectScreen (plus Nanosyn / Reaction Biology for CDK/cyclin lines)
Summary of the method: as §1

[19] = target: T19, MAPK14 (p38 alpha) Direct (Homo sapiens, UniProt Q16539)
T19 construct: purchased Thermo Fisher Scientific SelectScreen (plus Nanosyn / Reaction Biology for CDK/cyclin lines)
Summary of the method: as §1

[20] = target: T20, MAPKAPK5 (PRAK) (Homo sapiens, UniProt Q8IW41)
T20 construct: purchased Thermo Fisher Scientific SelectScreen (plus Nanosyn / Reaction Biology for CDK/cyclin lines)
Summary of the method: as §1

[21] = target: T21, MARK1 (MARK) (Homo sapiens, UniProt Q9P0L2)
T21 construct: purchased Thermo Fisher Scientific SelectScreen (plus Nanosyn / Reaction Biology for CDK/cyclin lines)
Summary of the method: as §1

[22] = target: T22, MKNK1 (MNK1) (Homo sapiens, UniProt Q9BUB5)
T22 construct: purchased Thermo Fisher Scientific SelectScreen (plus Nanosyn / Reaction Biology for CDK/cyclin lines)
Summary of the method: as §1

[23] = target: T23, MUSK (Homo sapiens, UniProt O15146)
T23 construct: purchased Thermo Fisher Scientific SelectScreen (plus Nanosyn / Reaction Biology for CDK/cyclin lines)
Summary of the method: as §1

[24] = target: T24, NEK9 (Homo sapiens, UniProt Q8TD19)
T24 construct: purchased Thermo Fisher Scientific SelectScreen (plus Nanosyn / Reaction Biology for CDK/cyclin lines)
Summary of the method: as §1

[25] = target: T25, PHKG2 (Homo sapiens, UniProt P15735)
T25 construct: purchased Thermo Fisher Scientific SelectScreen (plus Nanosyn / Reaction Biology for CDK/cyclin lines)
Summary of the method: as §1

[26] = target: T26, PRKCG (PKC gamma) (Homo sapiens, UniProt P05129)
T26 construct: purchased Thermo Fisher Scientific SelectScreen (plus Nanosyn / Reaction Biology for CDK/cyclin lines)
Summary of the method: as §1

[27] = target: T27, PRKCH (PKC eta) (Homo sapiens, UniProt P24723)
T27 construct: purchased Thermo Fisher Scientific SelectScreen (plus Nanosyn / Reaction Biology for CDK/cyclin lines)
Summary of the method: as §1

[28] = target: T28, PRKCN (PKD3) (Homo sapiens, UniProt O94806)
T28 construct: purchased Thermo Fisher Scientific SelectScreen (plus Nanosyn / Reaction Biology for CDK/cyclin lines)
Summary of the method: as §1

[29] = target: T29, PRKG1 (Homo sapiens, UniProt Q13976)
T29 construct: purchased Thermo Fisher Scientific SelectScreen (plus Nanosyn / Reaction Biology for CDK/cyclin lines)
Summary of the method: as §1

[30] = target: T30, RET S891A (Homo sapiens, UniProt P07949, S891A)
T30 construct: purchased Thermo Fisher Scientific SelectScreen (plus Nanosyn / Reaction Biology for CDK/cyclin lines)
Summary of the method: as §1

[31] = target: T31, RET Y791F (Homo sapiens, UniProt P07949, Y791F)
T31 construct: purchased Thermo Fisher Scientific SelectScreen (plus Nanosyn / Reaction Biology for CDK/cyclin lines)
Summary of the method: as §1

[32] = target: T32, RPS6KB1 (p70S6K) (Homo sapiens, UniProt P23443)
T32 construct: purchased Thermo Fisher Scientific SelectScreen (plus Nanosyn / Reaction Biology for CDK/cyclin lines)
Summary of the method: as §1

[33] = target: T33, STK22D (TSSK1) (Homo sapiens, UniProt Q9BXA7)
T33 construct: purchased Thermo Fisher Scientific SelectScreen (plus Nanosyn / Reaction Biology for CDK/cyclin lines)
Summary of the method: as §1

[34] = target: T34, STK25 (YSK1) (Homo sapiens, UniProt O00506)
T34 construct: purchased Thermo Fisher Scientific SelectScreen (plus Nanosyn / Reaction Biology for CDK/cyclin lines)
Summary of the method: as §1

[35] = target: T35, SYK (Homo sapiens, UniProt P43405)
T35 construct: purchased Thermo Fisher Scientific SelectScreen (plus Nanosyn / Reaction Biology for CDK/cyclin lines)
Summary of the method: as §1

[36] = target: T36, TYK2 (Homo sapiens, UniProt P29597)
T36 construct: purchased Thermo Fisher Scientific SelectScreen (plus Nanosyn / Reaction Biology for CDK/cyclin lines)
Summary of the method: as §1

[37] = target: T37, ZAP70 (Homo sapiens, UniProt P43403)
T37 construct: purchased Thermo Fisher Scientific SelectScreen (plus Nanosyn / Reaction Biology for CDK/cyclin lines)
Summary of the method: as §1

T2 sequence (P51451 whole entry): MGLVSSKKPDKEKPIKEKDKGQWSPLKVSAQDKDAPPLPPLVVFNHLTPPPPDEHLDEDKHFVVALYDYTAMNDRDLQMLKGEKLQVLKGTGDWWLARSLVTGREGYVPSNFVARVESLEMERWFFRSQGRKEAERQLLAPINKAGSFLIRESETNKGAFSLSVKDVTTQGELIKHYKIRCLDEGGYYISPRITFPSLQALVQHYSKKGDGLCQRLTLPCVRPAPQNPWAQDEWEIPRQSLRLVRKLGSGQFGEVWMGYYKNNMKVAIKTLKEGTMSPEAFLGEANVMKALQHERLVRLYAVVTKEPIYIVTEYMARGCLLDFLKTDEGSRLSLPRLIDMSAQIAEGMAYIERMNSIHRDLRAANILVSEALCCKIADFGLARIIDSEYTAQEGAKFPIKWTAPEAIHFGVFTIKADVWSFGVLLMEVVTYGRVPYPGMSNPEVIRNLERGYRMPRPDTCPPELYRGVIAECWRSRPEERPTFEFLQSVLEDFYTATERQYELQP
T37 sequence (P43403 whole entry): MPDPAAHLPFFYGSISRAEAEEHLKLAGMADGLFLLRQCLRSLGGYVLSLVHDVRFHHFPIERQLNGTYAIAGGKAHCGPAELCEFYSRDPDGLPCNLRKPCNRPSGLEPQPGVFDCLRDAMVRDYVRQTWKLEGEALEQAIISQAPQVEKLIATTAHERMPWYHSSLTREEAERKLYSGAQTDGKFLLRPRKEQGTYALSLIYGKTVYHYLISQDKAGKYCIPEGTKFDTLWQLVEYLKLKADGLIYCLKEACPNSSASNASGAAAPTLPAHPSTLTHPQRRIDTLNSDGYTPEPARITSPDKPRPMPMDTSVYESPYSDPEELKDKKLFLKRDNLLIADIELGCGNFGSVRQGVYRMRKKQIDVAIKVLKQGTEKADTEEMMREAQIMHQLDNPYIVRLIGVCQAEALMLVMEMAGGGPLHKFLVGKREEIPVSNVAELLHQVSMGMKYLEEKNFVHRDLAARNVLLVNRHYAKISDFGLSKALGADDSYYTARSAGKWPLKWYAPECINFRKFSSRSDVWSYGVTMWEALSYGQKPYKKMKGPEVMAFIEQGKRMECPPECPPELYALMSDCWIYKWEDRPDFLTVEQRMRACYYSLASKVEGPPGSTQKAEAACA
T15 sequence (O14920 whole entry): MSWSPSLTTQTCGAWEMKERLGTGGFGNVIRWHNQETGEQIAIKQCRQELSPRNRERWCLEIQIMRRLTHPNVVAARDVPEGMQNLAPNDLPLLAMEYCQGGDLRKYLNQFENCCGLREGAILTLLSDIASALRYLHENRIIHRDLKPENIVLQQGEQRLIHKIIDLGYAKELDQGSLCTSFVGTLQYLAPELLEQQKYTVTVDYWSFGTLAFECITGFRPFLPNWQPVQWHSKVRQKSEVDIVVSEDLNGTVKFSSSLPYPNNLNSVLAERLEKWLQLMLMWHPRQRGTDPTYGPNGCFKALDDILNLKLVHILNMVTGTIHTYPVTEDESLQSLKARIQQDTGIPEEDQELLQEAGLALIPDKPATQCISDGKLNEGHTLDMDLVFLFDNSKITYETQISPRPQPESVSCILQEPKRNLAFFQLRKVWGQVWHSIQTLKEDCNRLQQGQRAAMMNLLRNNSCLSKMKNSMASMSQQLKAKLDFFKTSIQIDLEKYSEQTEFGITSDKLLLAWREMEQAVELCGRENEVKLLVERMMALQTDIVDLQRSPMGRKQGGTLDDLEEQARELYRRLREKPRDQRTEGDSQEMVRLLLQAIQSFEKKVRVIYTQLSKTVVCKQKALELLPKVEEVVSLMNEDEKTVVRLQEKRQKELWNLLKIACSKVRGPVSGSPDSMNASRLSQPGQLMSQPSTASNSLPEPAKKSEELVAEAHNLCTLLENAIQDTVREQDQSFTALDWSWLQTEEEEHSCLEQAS
T27 sequence (P24723 whole entry): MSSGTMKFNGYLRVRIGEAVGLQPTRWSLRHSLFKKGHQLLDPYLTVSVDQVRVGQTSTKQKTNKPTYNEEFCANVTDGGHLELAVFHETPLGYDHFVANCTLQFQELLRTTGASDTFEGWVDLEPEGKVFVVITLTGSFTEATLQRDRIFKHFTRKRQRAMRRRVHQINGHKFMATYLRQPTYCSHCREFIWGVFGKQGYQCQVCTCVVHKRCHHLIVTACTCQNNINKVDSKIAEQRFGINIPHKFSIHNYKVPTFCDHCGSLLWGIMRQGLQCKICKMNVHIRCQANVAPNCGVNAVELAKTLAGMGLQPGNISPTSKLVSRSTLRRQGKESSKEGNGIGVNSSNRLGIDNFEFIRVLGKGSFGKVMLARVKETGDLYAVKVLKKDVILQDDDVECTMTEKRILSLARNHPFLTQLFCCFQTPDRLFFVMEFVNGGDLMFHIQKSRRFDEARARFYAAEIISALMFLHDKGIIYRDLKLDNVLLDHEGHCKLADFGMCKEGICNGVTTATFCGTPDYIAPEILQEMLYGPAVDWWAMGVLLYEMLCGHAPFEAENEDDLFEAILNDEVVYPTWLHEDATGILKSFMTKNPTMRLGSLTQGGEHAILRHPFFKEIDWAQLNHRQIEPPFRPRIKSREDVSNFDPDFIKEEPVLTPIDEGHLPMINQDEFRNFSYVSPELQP
T29 sequence (Q13976 whole entry): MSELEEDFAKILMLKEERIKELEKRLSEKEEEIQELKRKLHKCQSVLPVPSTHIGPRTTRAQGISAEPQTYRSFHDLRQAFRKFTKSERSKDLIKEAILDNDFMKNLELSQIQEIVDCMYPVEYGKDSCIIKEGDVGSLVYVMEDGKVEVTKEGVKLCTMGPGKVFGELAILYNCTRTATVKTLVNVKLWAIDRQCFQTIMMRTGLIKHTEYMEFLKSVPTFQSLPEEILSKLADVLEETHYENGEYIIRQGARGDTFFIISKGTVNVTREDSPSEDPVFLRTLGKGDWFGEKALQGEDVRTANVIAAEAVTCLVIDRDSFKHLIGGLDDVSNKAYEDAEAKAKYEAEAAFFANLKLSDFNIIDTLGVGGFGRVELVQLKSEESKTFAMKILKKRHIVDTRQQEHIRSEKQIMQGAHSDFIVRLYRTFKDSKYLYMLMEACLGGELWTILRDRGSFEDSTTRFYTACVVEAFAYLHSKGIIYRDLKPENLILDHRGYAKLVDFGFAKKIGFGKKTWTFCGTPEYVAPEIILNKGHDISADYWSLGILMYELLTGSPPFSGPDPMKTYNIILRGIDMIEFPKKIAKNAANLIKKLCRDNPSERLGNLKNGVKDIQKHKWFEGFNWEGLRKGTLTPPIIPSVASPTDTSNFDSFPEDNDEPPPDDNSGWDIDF
T22 sequence (Q9BUB5 whole entry): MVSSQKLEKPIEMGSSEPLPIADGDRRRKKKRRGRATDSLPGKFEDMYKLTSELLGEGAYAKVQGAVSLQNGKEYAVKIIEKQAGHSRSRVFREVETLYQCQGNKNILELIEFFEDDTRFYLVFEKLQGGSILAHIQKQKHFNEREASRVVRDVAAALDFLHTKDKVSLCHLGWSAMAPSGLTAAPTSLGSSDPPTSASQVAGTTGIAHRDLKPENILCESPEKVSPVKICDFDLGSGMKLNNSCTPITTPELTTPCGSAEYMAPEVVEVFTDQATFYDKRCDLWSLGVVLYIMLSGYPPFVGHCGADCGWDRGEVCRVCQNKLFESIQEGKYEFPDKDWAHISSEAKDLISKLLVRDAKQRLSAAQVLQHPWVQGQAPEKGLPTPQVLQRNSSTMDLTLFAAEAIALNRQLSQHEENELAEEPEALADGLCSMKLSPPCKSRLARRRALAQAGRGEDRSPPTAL
T32 sequence (P23443 whole entry): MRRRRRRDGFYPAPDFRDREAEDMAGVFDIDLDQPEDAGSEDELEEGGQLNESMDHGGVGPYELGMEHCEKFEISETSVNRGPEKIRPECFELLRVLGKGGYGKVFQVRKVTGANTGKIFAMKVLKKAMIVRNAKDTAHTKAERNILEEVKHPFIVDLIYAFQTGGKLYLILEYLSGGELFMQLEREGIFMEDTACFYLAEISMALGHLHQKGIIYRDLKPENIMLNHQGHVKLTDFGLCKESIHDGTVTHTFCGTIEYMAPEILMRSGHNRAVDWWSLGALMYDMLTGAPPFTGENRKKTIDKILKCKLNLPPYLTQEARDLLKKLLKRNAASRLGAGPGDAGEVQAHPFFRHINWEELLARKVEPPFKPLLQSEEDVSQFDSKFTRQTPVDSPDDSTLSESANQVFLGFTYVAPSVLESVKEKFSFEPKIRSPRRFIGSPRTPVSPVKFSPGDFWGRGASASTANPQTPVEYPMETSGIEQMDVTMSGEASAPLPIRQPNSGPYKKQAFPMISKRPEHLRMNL

What does the source list for `NS(=O)(=O)c1ccc(Nc2ncc3cc4n(c3n2)C2(CCCCC2)C(=O)NN4)cc1` [INX-315]?
inhibition at 0.1 µM [1]: 55%; inhibition at 0.1 µM [2]: 11%; inhibition at 0.1 µM [3]: 16%; inhibition at 0.1 µM [4]: 0%; inhibition at 0.1 µM [5]: 100%; inhibition at 0.1 µM [6]: 6%; inhibition at 0.1 µM [7]: 1%; inhibition at 0.1 µM [8]: 8%; inhibition at 0.1 µM [9]: 3%; inhibition at 0.1 µM [10]: 19%; inhibition at 0.1 µM [11]: 0%; inhibition at 0.1 µM [12]: 4%; inhibition at 0.1 µM [13]: 21%; inhibition at 0.1 µM [14]: 5%; inhibition at 0.1 µM [15]: 4%; inhibition at 0.1 µM [16]: 21%; inhibition at 0.1 µM [17]: 4%; inhibition at 0.1 µM [18]: 1%; inhibition at 0.1 µM [19]: 5%; inhibition at 0.1 µM [20]: 2%; inhibition at 0.1 µM [21]: 9%; inhibition at 0.1 µM [22]: 3%; inhibition at 0.1 µM [23]: 8%; inhibition at 0.1 µM [24]: 2%; inhibition at 0.1 µM [25]: 2%; inhibition at 0.1 µM [26]: 7%; inhibition at 0.1 µM [27]: 11%; inhibition at 0.1 µM [28]: 13%; inhibition at 0.1 µM [29]: 7%; inhibition at 0.1 µM [30]: 46%; inhibition at 0.1 µM [31]: 50%; inhibition at 0.1 µM [32]: 1%; inhibition at 0.1 µM [33]: 11%; inhibition at 0.1 µM [34]: 1%; inhibition at 0.1 µM [35]: 8%; inhibition at 0.1 µM [36]: 89%; inhibition at 0.1 µM [37]: -1%
